Experiments:
[1] = absolute recovery over mixed-bed multilayer solid-phase extraction; higher = better recovery; settings: enrichment method: SPE
Method in brief: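 A three-layer mixed-bed cartridge was loaded with 100–250 mL of wastewater (adjusted to pH 6.5, glass-fibre filtered) or 1000 mL of unfiltered nanopure water, then eluted with basic and subsequently acidic ethyl acetate/methanol. Standards were introduced pre-extraction, post-extraction, or not at all, at 200 ng/L for water and 1000 ng/L for wastewater, except for certain classes. Once internal standards had been added, both ionisation modes were run by liquid chromatography with high-resolution tandem mass spectrometry. Absolute recovery was derived from background-corrected response ratios of pre- against post-spiked samples, averaged over at least two replicates.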

[2] = LC retention time (Atlantis T3, 5-95% MeOH gradient, 0.1% formic acid); higher = more retained / less polar
Method in brief: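 Retention times refer to reference standards measured by liquid chromatography with high-resolution tandem mass spectrometry. Separation was on an Atlantis T3 C18 column (3 × 150 mm, 3 μm) at 0.3 mL/min with a 5 to 95% methanol gradient over 17.5 min, both solvents carrying 0.1% formic acid. Positive and negative electrospray were run separately on a QExactive Plus, and TraceFinder peak integration (5 ppm tolerance, at least three points per peak) was reviewed by hand.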

[3] = absolute recovery over vacuum-assisted evaporative concentration; higher = better recovery; settings: enrichment method: VEC
Method in brief: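 Absolute recovery was calculated as (response ratio pre − unspiked)/(post − unspiked) × 100 from averages of ≥ 2 replicates. Influent (6 mL), effluent (15 mL), and surface and nanopure water (60 mL) samples were spiked with standards before concentration, after concentration, or not at all, at 200 ng/L for nanopure and surface water or 1000 ng/L for wastewater, with class- and compound-specific adjustments. Samples were evaporated at 55 °C and 20 mbar to about 0.3 mL, made up to 0.4 mL and centrifuged, then internal standards were added before LC-HRMS/MS analysis.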

SMILES | absolute recovery ([1]; nanopure water) [%] | absolute recovery ([1]; surface water) [%] | absolute recovery ([1]; wastewater effluent) [%] | LC retention time [2] [min] | absolute recovery ([3]; wastewater influent) [%] | absolute recovery ([3]; wastewater effluent) [%] | absolute recovery ([1]; wastewater influent) [%]
CC(=O)Nc1c(C)n(C)n(-c2ccccc2)c1=O [4-Acetamidoantipyrin (=N-Acetyl-4-Aminoantipyrin, 4-AAA)] | 96 | 84.5 | 87.5 | 11.9 | – | – | –
CCOCN(C(=O)CS(=O)(=O)[O-])c1c(C)cccc1CC [Acetochlor-ESA] | – | – | – | 17.2 | 108 | – | –
CCC(=O)C(CC(C)[NH+](C)C)(c1ccccc1)c1ccccc1 (stereo not given) [Methadon] | – | – | – | 15.9 | 100 | 105 | –
Cc1c(NC=O)c(=O)n(-c2ccccc2)n1C [4-Formylaminoantipyrin (=4-FAA)] | 101 | 93.6 | 90.2 | 11.7 | – | – | 103
Oc1ccc(C(F)(F)F)cc1 [4-(Trifluoromethyl)phenol] | 68.5 | – | 71.8 | 18.3 | – | – | 95.1
CC(C)(C)[NH2+]CC(O)c1ccc(O)c(CO)c1 (stereo not given) [Albuterol] | – | – | – | 8.59 | 99.8 | 102 | –
O=C(c1ccccc1)c1ccc(Cl)cc1 [4-Chlorobenzophenone] | 83.1 | 97.1 | 86.1 | 20.9 | – | – | 37.3
CC(C)n1c(C=CC(O)CC(O)CC(=O)[O-])c(-c2ccc(F)cc2)c2ccccc21 (stereo not given) [Fluvastatin] | – | – | – | 20.8 | 72.3 | 105 | –
O=C([O-])C[NH+](CCC[NH+](CC(=O)[O-])CC(=O)[O-])CC(=O)[O-] [1-3-Propylene-diaminotetraacetic-acid] | – | – | – | 3.58 | 117 | 85.1 | –
Nc1ncnc2c1ncn2C1OC(CO)C(O)C1O (stereo not given) [Adenosine] | 82 | 69.4 | 73.7 | 7.57 | – | – | –
CCc1cc(C)cc(CC)c1-c1c(OC(=O)C(C)(C)C)n2n(c1=O)CCOCC2 [Pinoxaden] | – | – | – | 21.2 | 10.7 | 51.6 | –
CCOC(=O)Nc1cccc(OC(=O)Nc2ccccc2)c1 [Desmedipham D] | 90.8 | 117 | 106 | 18.6 | – | – | 76.2
N#Cc1nn(-c2c(Cl)cc(C(F)(F)F)cc2Cl)c(N)c1C(F)(F)F [Fipronil-desulfinyl] | 139 | – | – | 20.2 | – | – | –
C#CCN1C(=O)COc2cc(F)c(N3C(=O)C4=C(CCCC4)C3=O)cc21 [Flumioxazin] | 99.7 | 77.4 | 91.6 | 18.8 | – | – | 64
[NH3+]C(CO)(CO)CO [Trometamol] | – | – | – | 2.85 | 73.2 | 105 | –
COc1cc(NC(C)CCC[NH3+])c2ncccc2c1 (stereo not given) [Primaquine] | – | – | – | 14.4 | 37.5 | 60.5 | –
O=C([O-])C(F)(F)C(F)(F)C(F)(F)C(F)(F)F [PFPA] | – | – | – | 12.4 | – | – | –
CCOP(=O)(OCC)Oc1cc(C)nc(C(C)C)n1 [Diazoxon] | – | – | – | 18.8 | 95.3 | 85.6 | –
CCC(C)(C)C(=O)OC1CC(C)C=C2C=CC(C)C(CCC3CC(O)CC(=O)O3)C21 (stereo not given) [Simvastatin] | – | – | – | 22.9 | – | – | –
O=c1ncnc2[nH][nH]cc1-2 [Allopurinol] | 113 | – | – | 6.21 | – | – | –
Oc1ccc(C=Cc2cc(O)cc(O)c2)cc1 [Resveratrol] | 57.8 | 66.6 | 48.4 | 15.5 | – | – | 68.9
C[NH+]1CCN(C2=Nc3cc(Cl)ccc3Nc3ccccc32)CC1 [Clozapin] | – | – | – | 14.4 | 98 | 102 | –
Nc1nc(N)[nH+]c(N)n1 [Melamin] | 21.3 | – | – | 3.5 | – | – | –
NC(=O)N=C(N)N [Guanylurea] | 42.6 | – | – | 3.13 | – | – | –

SMILES | absolute recovery ([1]; nanopure water) [%] | absolute recovery ([1]; surface water) [%] | absolute recovery ([1]; wastewater effluent) [%] | LC retention time [2] [min] | absolute recovery ([3]; wastewater influent) [%] | absolute recovery ([3]; wastewater effluent) [%] | absolute recovery ([1]; wastewater influent) [%]
C[NH2+]CC(O)c1cccc(O)c1 (stereo not given) [Phenylephrine] | 83.2 | 82 | 78.5 | 5.47 | – | – | 86.1
CCCN(CCC)C(=O)SCc1ccccc1 [Prosulfocarb] | 38.9 | 35.1 | 43.2 | 11.5 | – | – | –
COc1ccc(CC[NH+](C)CCCC(C#N)(c2ccc(OC)c(OC)c2)C(C)C)cc1OC (stereo not given) [Verapamil] | – | – | – | 15.1 | 97.4 | 98.2 | –
C[N-]S(=O)(=O)C(F)(F)C(F)(F)C(F)(F)C(F)(F)C(F)(F)C(F)(F)C(F)(F)C(F)(F)F [N-MeFOSA] | – | 50.3 | 61.7 | 22.3 | – | – | –
OCC(O)C(O)C(OC1OC(CO)C(O)C(O)C1O)C(O)CO [D-Lactitol] | – | – | – | 2.76 | – | – | –
C[NH2+]CC(O)c1ccc(O)c(O)c1 (stereo not given) [Epinephrine] | 40.2 | 12.7 | 15.9 | 3.27 | – | – | 26.6
O=C(CCC[NH+]1CCC(O)(c2ccc(Cl)cc2)CC1)c1ccc(F)cc1 [Haloperidol] | – | – | – | 15 | 118 | 114 | –
Cc1cc([N-]S(=O)(=O)c2ccc(N)cc2)no1 [Sulfamethoxazol] | – | – | – | 13 | 113 | 102 | –
[NH3+]CCc1ccc(O)c(O)c1 [Dopamine] | 23.9 | – | – | 4.36 | – | – | –
[NH3+]C(CC(=O)N1CCn2c(nnc2C(F)(F)F)C1)Cc1cc(F)c(F)cc1F (stereo not given) [Sitagliptin] | 53.8 | 67.1 | – | 12.6 | – | – | –
COC(=O)c1ccccc1S(N)(=O)=O [2-Aminosulfonyl-benzoicacid-methylester] | 118 | 101 | 102 | 12.9 | – | – | 91.4
COc1cc(Cc2c[nH+]c(N)nc2N)cc(OC)c1OC [Trimethoprim] | – | – | – | 10.5 | 106 | 107 | –
Cc1c(OCC(F)(F)F)ccnc1CS(=O)c1nc2ccccc2[nH]1 (stereo not given) [Lansoprazole] | – | – | – | 17.1 | 100 | 86.8 | –
CC1(C)SC2C([NH3+])C(=O)N2C1C(=O)[O-] (stereo not given) [6-Aminopenicillanic-acid] | – | – | – | 4.79 | 86.7 | 90.3 | –
CC(=O)NCCCS(=O)(=O)[O-] [Acamprosat] | – | – | – | 4.93 | – | – | –
CN(CC(=O)[O-])S(=O)(=O)C(F)(F)C(F)(F)C(F)(F)C(F)(F)C(F)(F)C(F)(F)C(F)(F)C(F)(F)F [N-MeFOSAA] | – | 80 | 95.4 | 23.3 | – | – | –
CC(C(=O)[O-])c1cccc(C(=O)c2ccccc2)c1 (stereo not given) [Ketoprofen] | – | – | – | 18.8 | 96.4 | 110 | –
O=[N+]([O-])c1ccc(C2OC2c2ccc([N+](=O)[O-])cc2S(=O)(=O)[O-])c(S(=O)(=O)[O-])c1 (stereo not given) [1-2-Bis-(4-4-dinitro-2-2-disulfonic acid-phenylethylenoxide] | 106 | – | – | 19.7 | – | – | –
CNC(=O)Oc1cc(C)c(S(C)=O)c(C)c1 (stereo not given) [Methiocarb-sulfoxide] | 75.7 | 83 | 77.8 | 13.7 | – | – | 58.2
CC[N-]S(=O)(=O)C(F)(F)C(F)(F)C(F)(F)C(F)(F)C(F)(F)C(F)(F)C(F)(F)C(F)(F)F [N-EtFOSA] | – | 57.6 | 66.9 | 22.8 | – | – | –
CC1=CC(=O)[N-]S(=O)(=O)O1 [Acesulfam] | 93.2 | – | – | 9.43 | – | – | –
Nc1ccc2c(S(=O)(=O)[O-])cccc2c1S(=O)(=O)[O-] [2-amino-1-5-napthalenedisulfonic-acid] | – | – | – | 4.35 | – | – | –
O=c1ccc(=O)[nH][n-]1 [Maleic-hydrazide] | – | 12.8 | – | 5.88 | – | – | –
Nc1c(I)c(C(=O)[O-])c(I)c(C(=O)[O-])c1I [5-Amino-2-4-6-triiodoisophthalic-acid] | – | – | – | 10.2 | – | – | –
